Patent US8673908B2, “Kynurenine production inhibitor” (Kyowa Hakko Kirin Co., Ltd., priority 2008, dated 2014)

System: kynurenine production in IFN-γ-treated KATO-III cells
Assay: Inhibitory activity on kynurenine production (Test Example 1)
Type: cell-based
Conditions: Homo sapiens, IFN-γ treatment, culture for 96 hours, read-out: IC50 value, inhibition of kynurenine production
Summary of the method: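 KATO-III human gastric cancer cells (2,000/well, RPMI 1640 + 10% FBS) were cultured with compound and IFN-γ (31.25 ng/mL in the cell suspension), DMSO ≤0.1%, for 96 h at 37 °C, 5% CO2. Kynurenine was read at A480 after TCA at 65 °C and p-dimethylaminobenzaldehyde. Inhibition used IFN-γ-treated and untreated DMSO wells as references.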

Work on `O=S(=O)(Nc1nc2ccccc2nc1OC(c1cccnc1)C1(F)CCOCC1)c1ccccc1Cl` (stereo not drawn) [Compound 78, 2-chloro-N-{3-[4-fluorotetrahydropyran-4-yl(pyridin-3-yl)-methoxy]quinoxalin-2-yl}benzenesulfonamide] yielded an IC50 of under 1000 nM.
In the case of `O=S(=O)(Nc1nc2ccccc2nc1OCc1ccc2ccccc2c1)c1cccc(Cl)c1Cl` [Compound 10, 2,3-dichloro-N-{3-[(2-naphthyl)methoxy]quinoxalin-2-yl}-benzenesulfonamide], the IC50 is reported as under 1000 nM.
`Cn1cc(C(Oc2nc3ccccc3nc2NS(=O)(=O)c2cccc(Cl)c2Cl)C(F)(F)F)cn1` (stereo not drawn) [Compound 96, 2,3-dichloro-N-{3-[2,2,2-trifluoro-1-(1-methyl-1H-pyrazol-4-yl)ethoxy]quinoxalin-2-yl}benzenesulfonamide] showed an IC50 of under 1000 nM.
For `O=S(=O)(Nc1nc2ccccc2nc1OC(c1cccnc1)C(F)(F)F)c1ccccc1F` (stereo not drawn) [Compound 144, 2-fluoro-N-{3-[2,2,2-trifluoro-1-(pyridin-3-yl)ethoxy]-quinoxalin-2-yl}benzenesulfonamide], the IC50 was under 1000 nM.
`Cc1noc(C)c1S(=O)(=O)Nc1nc2ccccc2nc1OC(c1cncs1)C(F)(F)F` (stereo not drawn) [Compound 178, 3,5-dimethyl-N-{3-[2,2,2-trifluoro-1-(thiazol-5-yl)ethoxy]-quinoxalin-2-yl}isoxazole-4-sulfonamide] was tested, and the IC50 was under 1000 nM.
`O=S(=O)(Nc1nc2ccccc2nc1OC(c1cccnc1)C(F)(F)F)NC1CC1` (stereo not drawn) [Compound 189, N-cyclopropyl-N′-{3-[2,2,2-trifluoro-1-(pyridin-3-yl)-ethoxy]quinoxalin-2-yl}sulfuric diamide] showed an IC50 of under 1000 nM.
`CCCNS(=O)(=O)Nc1nc2ccccc2nc1O[C@H](c1cccnc1)C(F)(F)F` [Compound 314, (R)—N-propyl-N′-{3-[2,2,2-trifluoro-1-(pyridin-3-yl)-ethoxy]quinoxalin-2-yl}sulfuric diamide] was tested, and the IC50 was under 1000 nM.
`CCOCCNS(=O)(=O)Nc1nc2ccccc2nc1OC(c1cccnc1)C(F)(F)F` (stereo not drawn) [Compound 207, N-{3-[2,2,2-trifluoro-1-(pyridin-3-yl)ethoxy]quinoxalin-2-yl}-N′-(2-ethoxyethyl)-sulfuric diamide] gave an IC50 of under 1000 nM.
In the case of `Cc1nn(C)c(Cl)c1S(=O)(=O)Nc1nc2ccccc2nc1OC(c1cncn1C)C(F)(F)F` (stereo not drawn) [Compound 170, 5-chloro-1,3-dimethyl-N-{3-[2,2,2-trifluoro-1-(1-methyl-1H-imidazol-5-yl)ethoxy]quinoxalin-2-yl}-1H-pyrazole-4-sulfonamide], the IC50 is reported as under 1000 nM.
For `O=S(=O)(Nc1nc2ccccc2nc1OC(c1cccc(F)c1)C(F)(F)F)c1ccccc1Cl` (stereo not drawn) [Compound 83, 2-chloro-N-{3-[2,2,2-trifluoro-1-(3-fluorophenyl)ethoxy]-quinoxalin-2-yl}benzenesulfonamide], the IC50 was under 1000 nM.
With `O=S(=O)(Cc1ccccc1)Nc1nc2ccccc2nc1OC(c1cccnc1)C(F)(F)F` (stereo not drawn) [Compound 147, 1-phenyl-N-{3-[2,2,2-trifluoro-1-(pyridin-3-yl)ethoxy]-quinoxalin-2-yl}methanesulfonamide] the IC50 was under 1000 nM.
With `Cc1ccc(C(Oc2nc3ccccc3nc2NS(=O)(=O)CC2CC2)C(F)(F)F)cn1` (stereo not drawn) [Compound 305, 1-cyclopropyl-N-{3-[2,2,2-trifluoro-1-(6-methylpyridin-3-yl)ethoxy]quinoxalin-2-yl}methanesulfonamide] the IC50 was under 1000 nM.
Molecule `N#CC1(COc2nc3ccccc3nc2NS(=O)(=O)c2ccccc2Cl)CCOCC1` [Compound 250, 2-chloro-N-{3-[(4-cyanotetrahydro-2H-pyran-4-yl)methoxy]-quinoxalin-2-yl}benzenesulfonamide] has an IC50 of 1000 to 10000 nM.
For `CCCS(=O)(=O)Nc1nc2ccccc2nc1OC(C1CCN(S(C)(=O)=O)CC1)C(F)(F)F` (stereo not drawn) [Compound 336, N-{3-[2,2,2-trifluoro-1-(1-methanesulfonylpiperidin-4-yl)-ethoxy]quinoxalin-2-yl}propane-1-sulfonamide], the IC50 was under 1000 nM.
For `Cc1noc(C)c1S(=O)(=O)Nc1nc2ccccc2nc1OC(c1cnc(Cl)s1)C(F)(F)F` (stereo not drawn) [Compound 198, N-{3-[1-(2-chlorothiazol-5-yl)-2,2,2-trifluoroethoxy]-quinoxalin-2-yl}-3,5-dimethylisoxazole-4-sulfonamide], the IC50 was under 1000 nM.
With `CCCNS(=O)(=O)Nc1nc2ccccc2nc1OC(c1ccc(C#N)cc1)C(F)(F)F` (stereo not drawn) [Compound 292, N-{3-[1-(4-cyanophenyl)-2,2,2-trifluoroethoxy]quinoxalin-2-yl}-N′-propyl-sulfuric diamide] the IC50 was under 1000 nM.
`CCCNS(=O)(=O)Nc1nc2ccccc2nc1OC(c1ccc[n+]([O-])c1)C(C)C` (stereo not drawn) [Compound 214, 3-{2-methyl-1-[3-(N-propylsulfamoylamino)quinoxalin-2-yloxy]propyl}pyridine 1-oxide] gave an IC50 of under 1000 nM.
Molecule `O=S(=O)(Nc1nc2ccccc2nc1OC(c1cccnc1)C(F)(F)F)c1cccc(Cl)c1` (stereo not drawn) [Compound 181, 3-chloro-N-{3-[2,2,2-trifluoro-1-(pyridin-3-yl)ethoxy]-quinoxalin-2-yl}benzenesulfonamide] has an IC50 of under 1000 nM.
For `O=S(=O)(Nc1nc2ccccc2nc1O[C@H](c1cccnc1)C(F)(F)F)NC1CC1` [Compound 317, (R)—N-cyclopropyl-N′-{3-[2,2,2-trifluoro-1-(pyridin-3-yl)-ethoxy]quinoxalin-2-yl}sulfuric diamide], the IC50 was under 1000 nM.
For `CCCS(=O)(=O)Nc1nc2ccccc2nc1OC(C(F)(F)F)C1(F)CCN(S(C)(=O)=O)CC1` (stereo not drawn) [Compound 355, N-{3-[2,2,2-trifluoro-1-(4-fluoro-1-methanesulfonylpiperidin-4-yl)ethoxy]quinoxalin-2-yl}propane-1-sulfonamide], the IC50 was under 1000 nM.
In the case of `N#Cc1cccc(C(Oc2nc3ccccc3nc2NS(=O)(=O)CC2CC2)C(F)(F)F)c1` (stereo not drawn) [Compound 309, 1-cyclopropyl-N-{3-[1-(3-cyanophenyl)-2,2,2-trifluoroethoxy]quinoxalin-2-yl}methanesulfonamide], the IC50 is reported as under 1000 nM.
`Cc1ncsc1C(Oc1nc2ccccc2nc1NS(=O)(=O)c1ccccc1Cl)C(F)(F)F` (stereo not drawn) [Compound 107, 2-chloro-N-{3-[2,2,2-trifluoro-1-(4-methylthiazol-5-yl)-ethoxy]quinoxalin-2-yl}benzenesulfonamide] gave an IC50 of under 1000 nM.
`CCC1(COc2nc3ccccc3nc2NS(=O)(=O)c2ccccc2Cl)CCOCC1` [Compound 245, 2-chloro-N-{3-[(4-ethyltetrahydro-2H-pyran-4-yl)methoxy]-quinoxalin-2-yl}benzenesulfonamide] gave an IC50 of under 1000 nM.
In the case of `O=S(=O)(Nc1nc2ccccc2nc1OC(c1cccc(Cl)c1)C(F)(F)F)c1ccccc1Cl` (stereo not drawn) [Compound 84, 2-chloro-N-{3-[2,2,2-trifluoro-1-(3-chlorophenyl)ethoxy]-quinoxalin-2-yl}benzenesulfonamide], the IC50 is reported as under 1000 nM.
In the case of `O=S(=O)(Nc1nc2ccccc2nc1OC(c1cccnc1)C(F)(F)F)c1cccs1` (stereo not drawn) [Compound 140, N-{3-[2,2,2-trifluoro-1-(pyridin-3-yl)ethoxy]quinoxalin-2-yl}thiophene-2-sulfonamide], the IC50 is reported as under 1000 nM.
For `CC(COc1nc2ccccc2nc1NS(=O)(=O)c1ccccc1Cl)Cc1cccnc1` (stereo not drawn) [Compound 176, 2-chloro-N-{3-[2-methyl-3-(pyridin-3-yl)propoxy]quinoxalin-2-yl}benzenesulfonamide], the IC50 was under 1000 nM.
With `O=S(=O)(Nc1nc2ccccc2nc1OC(c1ccc(C(F)(F)F)cc1)C(F)(F)F)c1cccc(Cl)c1Cl` (stereo not drawn) [Compound 36, 2,3-dichloro-N-{3-[2,2,2-trifluoro-1-(4-trifluoromethyl-phenyl)ethoxy]quinoxalin-2-yl}benzenesulfonamide] the IC50 was under 1000 nM.
